Data on 22 compounds can be found in ChEMBL document CHEMBL3132827, “Quinazoline and tetrahydropyridothieno[2,3-d]pyrimidine derivatives as irreversible EGFR tyrosine kinase inhibitors: influence of the position 4 substituent” (Medchemcomm, 2013).

SMILES strings stand for the structures. pIC50: −log10 of the molar value.

The test system of test [1] is NCI-H1975. Briefly: cells. Type of test: functional, cell-based. The settings on record: Homo sapiens.
A short description of test [2]: Cytotoxicity against human SKBR3 cells expressing wild type EGFR assessed as growth inhibition incubated for 1 hr prior to EGF challenge measured after 72 hrs by luciferase reporter gene assay. Format: functional, cell-based. To be noted: SK-BR-3. (In general: Reporter assays use an easily measured gene product as a stand-in for the process of interest.)
The target of test [3] is Epidermal growth factor receptor (Homo sapiens, UniProt P00533). Briefly: Inhibition of recombinant wild type EGFR kinase(unknown origin) after 30 mins in presence of [gamma32P]ATP.
The target of test [4] is Epidermal growth factor receptor (Homo sapiens, UniProt P00533, L858R/T790M). Format: cell-based, NCI-H1975.
Epidermal growth factor receptor (Homo sapiens, UniProt P00533, L858R/T790M), sequence (P00533 25-1210 T790M/L858R limits assumed): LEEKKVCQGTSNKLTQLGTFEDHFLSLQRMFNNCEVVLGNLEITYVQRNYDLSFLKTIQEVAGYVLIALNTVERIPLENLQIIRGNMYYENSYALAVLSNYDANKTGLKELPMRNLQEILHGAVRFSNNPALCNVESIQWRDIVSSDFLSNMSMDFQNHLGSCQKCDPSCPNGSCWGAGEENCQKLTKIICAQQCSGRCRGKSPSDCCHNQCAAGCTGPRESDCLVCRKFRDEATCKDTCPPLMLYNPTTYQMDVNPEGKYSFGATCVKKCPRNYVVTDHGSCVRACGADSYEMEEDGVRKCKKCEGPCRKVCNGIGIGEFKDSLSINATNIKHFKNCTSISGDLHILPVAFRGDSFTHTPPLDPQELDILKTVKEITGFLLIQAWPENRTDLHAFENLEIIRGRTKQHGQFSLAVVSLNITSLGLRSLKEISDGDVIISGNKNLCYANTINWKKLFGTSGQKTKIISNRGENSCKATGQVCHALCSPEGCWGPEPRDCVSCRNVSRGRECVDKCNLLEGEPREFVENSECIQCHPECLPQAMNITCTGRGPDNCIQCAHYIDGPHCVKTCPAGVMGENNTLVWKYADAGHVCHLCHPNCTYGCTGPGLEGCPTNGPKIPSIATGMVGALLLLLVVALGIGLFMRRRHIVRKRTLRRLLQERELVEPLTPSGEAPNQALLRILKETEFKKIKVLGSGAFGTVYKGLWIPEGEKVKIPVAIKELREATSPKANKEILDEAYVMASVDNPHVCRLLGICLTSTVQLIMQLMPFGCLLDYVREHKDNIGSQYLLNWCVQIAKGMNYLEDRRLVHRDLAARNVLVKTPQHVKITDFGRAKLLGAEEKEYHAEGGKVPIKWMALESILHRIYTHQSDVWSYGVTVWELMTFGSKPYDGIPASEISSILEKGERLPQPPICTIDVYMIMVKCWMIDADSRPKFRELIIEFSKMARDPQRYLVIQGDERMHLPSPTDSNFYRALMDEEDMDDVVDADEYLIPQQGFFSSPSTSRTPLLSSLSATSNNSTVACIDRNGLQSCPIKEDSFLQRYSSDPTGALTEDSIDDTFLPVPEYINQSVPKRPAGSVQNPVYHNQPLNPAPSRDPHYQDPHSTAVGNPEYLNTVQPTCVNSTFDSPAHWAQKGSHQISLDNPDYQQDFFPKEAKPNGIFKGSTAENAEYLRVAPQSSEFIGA

Epidermal growth factor receptor (Homo sapiens, UniProt P00533), sequence (P00533 whole entry): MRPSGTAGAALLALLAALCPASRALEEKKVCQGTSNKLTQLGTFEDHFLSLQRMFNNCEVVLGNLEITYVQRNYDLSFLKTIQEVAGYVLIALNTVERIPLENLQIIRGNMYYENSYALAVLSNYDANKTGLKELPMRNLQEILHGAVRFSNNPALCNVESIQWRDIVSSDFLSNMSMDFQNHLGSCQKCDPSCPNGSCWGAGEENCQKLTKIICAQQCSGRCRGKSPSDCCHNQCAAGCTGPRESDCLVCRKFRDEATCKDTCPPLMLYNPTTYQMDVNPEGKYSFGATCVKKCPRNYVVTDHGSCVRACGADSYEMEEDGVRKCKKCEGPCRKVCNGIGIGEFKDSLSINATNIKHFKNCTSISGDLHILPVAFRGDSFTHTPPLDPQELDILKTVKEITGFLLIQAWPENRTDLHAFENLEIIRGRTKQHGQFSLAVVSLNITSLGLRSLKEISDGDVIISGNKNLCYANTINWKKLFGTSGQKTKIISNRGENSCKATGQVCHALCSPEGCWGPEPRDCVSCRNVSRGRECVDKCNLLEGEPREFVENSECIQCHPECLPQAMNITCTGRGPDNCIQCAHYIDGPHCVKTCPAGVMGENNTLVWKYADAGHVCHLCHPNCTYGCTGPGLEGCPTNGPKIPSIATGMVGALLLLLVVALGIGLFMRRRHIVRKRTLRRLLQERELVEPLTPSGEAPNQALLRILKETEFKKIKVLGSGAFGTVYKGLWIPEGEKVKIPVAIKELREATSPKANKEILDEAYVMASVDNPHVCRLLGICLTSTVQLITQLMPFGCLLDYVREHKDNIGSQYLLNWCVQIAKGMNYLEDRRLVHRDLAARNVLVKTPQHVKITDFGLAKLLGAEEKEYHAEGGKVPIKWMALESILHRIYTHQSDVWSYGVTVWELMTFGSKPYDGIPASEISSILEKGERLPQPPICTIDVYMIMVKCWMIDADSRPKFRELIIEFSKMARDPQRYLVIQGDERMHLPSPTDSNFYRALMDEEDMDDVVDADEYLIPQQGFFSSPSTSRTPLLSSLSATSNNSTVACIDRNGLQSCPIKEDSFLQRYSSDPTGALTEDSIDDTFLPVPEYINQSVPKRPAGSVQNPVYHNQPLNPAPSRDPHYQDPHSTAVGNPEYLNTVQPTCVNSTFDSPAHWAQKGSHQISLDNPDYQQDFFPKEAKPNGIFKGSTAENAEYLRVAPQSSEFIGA

Take `C=CC(=O)Nc1ccc2ncnc(Nc3cccc(Br)c3)c2c1`: the pIC50 (usually −log10 of the IC50, conventionally taken in molar units) in test [1] is 6.36; in test [2], 6.70.

Regarding `C=CC(=O)Nc1ccc2ncnc(Nc3ccc(Br)cc3F)c2c1`, the pIC50 was 6.55 in test [1], 8.68 in test [3], 7.44 in test [4] and 6.29 in test [2].

With `C=CC(=O)Nc1ccc2ncnc(Nc3ccc(S(=O)(=O)Nc4ccccn4)cc3)c2c1`, the pIC50 was under 4.40 in test [1], 8.01 in test [3], 5.36 in test [4] and 6.41 in test [2].

As for `C=CC(=O)Nc1ccc2ncnc(NC3CCCCC3)c2c1`, the pIC50 in test [1] is under 4.40; in test [3] it was 8.47; in test [4], 5.55; in test [2] it was 6.40.

For the compound `C=CC(=O)N1CCc2c(sc3ncnc(Nc4cccc(C)c4F)c23)C1`, the pIC50 in test [1] was 4.47; in test [3] it was 8.40; in test [4] it was 6.55; in test [2] it was 5.85.

In the case of `C=CC(=O)N1CCc2c(sc3ncnc(Nc4ccc(Br)cc4F)c23)C1`, the pIC50 is under 4.40 in test [1], 8.43 in test [3] and 5.64 in test [2].

With `C=CC(=O)N1CCc2c(sc3ncnc(Nc4ccc(Br)c(C)c4)c23)C1`, the pIC50 is under 4.40 in test [1], 8.36 in test [3] and under 4.40 in test [2].

In the case of `C=CC(=O)N1CCc2c(sc3ncnc(Nc4cccc(CC)c4)c23)C1`, the pIC50 was 4.62 in test [1], 8.06 in test [3] and 5.49 in test [2].

In the case of `C=CC(=O)N1CCc2c(sc3ncnc(Nc4ccc(CC)cc4)c23)C1`, the pIC50 in test [1] was 4.82; in test [3], 8.13; in test [4], 6.89; in test [2] it was 5.21.

With `C=CC(=O)N1CCc2c(sc3ncnc(NC4CCCCC4)c23)C1`, the pIC50 in test [1] is under 4.40; in test [3], under 6.82; in test [4], under 5.30; in test [2], under 4.40.

With `C=CC(=O)Nc1ccc2ncnc(Nc3c(F)cccc3Br)c2c1`, the results for the pIC50 in test [1], in test [3] and in test [2] were 6.59, 8.66 and 6.64, respectively.

Regarding `C=CC(=O)Nc1ccc2ncnc(Nc3ccc(Br)cc3C)c2c1`, the pIC50 in test [1] is 5.73; in test [3], 8.66; in test [2], 6.20.

For `C=CC(=O)Nc1ccc2ncnc(Nc3ccc(Br)c(C)c3)c2c1`, the pIC50 in test [1] is 5.74; in test [3] it was 8.64; in test [2], 5.85.

Consider `C=CC(=O)Nc1ccc2ncnc(Nc3cccc(C)c3F)c2c1`, for which the pIC50 in test [1] was 6.41; in test [3] it was 8.82; in test [4], 3.95; in test [2], 5.73.

On to `C=CC(=O)Nc1ccc2ncnc(Nc3ccc(Br)c(OC)c3)c2c1`, for which the pIC50 in test [1] was 6.40; in test [3], 8.60; in test [2], 6.44.

`C=CC(=O)Nc1ccc2ncnc(Nc3ccc(OC)cc3OC)c2c1`: the pIC50 in test [1] is 4.86; in test [2], 5.16.

Consider `C=CC(=O)Nc1ccc2ncnc(Nc3ccccc3CC)c2c1`, for which the pIC50 in test [1] is 4.80; in test [3], 7.72; in test [4], 5.70; in test [2], 5.11.

On to `C=CC(=O)Nc1ccc2ncnc(Nc3cccc(CC)c3)c2c1`, for which the pIC50 in test [1] was 6.17; in test [3], 8.57; in test [4], 6.56; in test [2] it was 5.55.

Consider `C=CC(=O)Nc1ccc2ncnc(Nc3ccc(CC)cc3)c2c1`, for which the results for the pIC50 in test [1], in test [3] and in test [2] were 4.80, 8.49 and 5.94, respectively.

`C=CC(=O)Nc1ccc2ncnc(Nc3ccc(S(N)(=O)=O)cc3)c2c1`: the pIC50 in test [1] was under 4.40; in test [3], 7.12; in test [2] it was 5.60.

In the case of `C=CC(=O)Nc1ccc2ncnc(Nc3ccc(S(=O)(=O)NC(=N)N)cc3)c2c1`, the pIC50 in test [1] was under 4.40; in test [3], 7.27; in test [2], under 4.40.

Take `C=CC(=O)Nc1ccc2ncnc(Nc3ccc(S(=O)(=O)Nc4nccs4)cc3)c2c1`: the values for the negative-log IC50 (pIC50) in test [1], in test [3] and in test [2] were under 4.40, 7.36 and 5.40, respectively.
